Laboratory results taken from patent US6596871B2, “Polymorphic forms of 6-[4-(1-cyclohexyl-1h-tetraol-5-yl)butoxy]-3,4-dihydro-2(1H)-quinolinone” (priority 2001, dated 2003).

Key:
[1] = aqueous solubility of cilostazol Form A; assay type: physicochemical; conditions: Form A as prepared by the procedures of the '479 patent
[2] = bioavailability of cilostazol Form A; assay type: in vivo; conditions: Form A as prepared by the procedures of the '479 patent
[3] = stability of the polymorphic form; assay type: physicochemical
[4] = relative solubility inferred from DSC melting behaviour; assay type: physicochemical; conditions: suggested by lower melting point / weaker crystal packing forces in DSC thermogram (FIG. 8)
From the text: (§1) Characterization of Form A of cilostazol, Form B of cilostazol, and Form C of cilostazol was further completed using DSC thermograms, shown in FIGS. 3, 4, and 5, respectively, with DSC thermograms for combinations of Form A and Form B; Form B and Form C; and Forms A, B, and C are shown in FIGS. 6, 7, and 8 respectively. DSC data were generated using a Mettler-Toledo DSC 821^e (Columbus, Ohio) with a Julabo FT900 intercooler chiller (Julabo Company; Allentown, Pa.). In general, samples were analyzed in a vented, sealed aluminum pan. Because the endothermic peak may vary depending upon the rate of heating and the calibration and precision of the instrument, with the amount of peak variation dependent upon the heating rate used, all thermograms included herein were run under the same, consistent conditions: heating at 10° C. per minute under a nitrogen purge at 40 mL/minute.
FIG. 8 illustrates a DSC thermogram for the combination of Form A, Form B and Form C having a second heating cycle with a maximum temperature of about 110° C. with a holding time of about 30 minutes. The peaks in the third heating cycle show a Form A to Form B to Form C peak area ratio of approximately 8:2:1, respectively, with the relative amount of Form A, Form B and Form C further variable on the heat of enthalpy of each polymorphic form.

[5] = solid state phase transformation of disturbed/stressed sample on heating by DSC; assay type: physicochemical; conditions: sample disturbed (scratching/stress), heated by DSC from 30° C. to approximately 200° C. at 10° C. per minute
From the text: as §1, with “mL/minute. The resultant sample of Example 1A was disturbed with scratching, which caused the cilostazol sample to undergo a solid state phase transformation at approximately 119° C. followed by an endotherm of melt at approximately 160° C. (Form A) during heating by DSC from 30° C. to approximately 200° C. at 10° C. per minute. When the sample is stressed and reheated (as detailed in Example 2A), the sample undergoes a solid state phase transformation at approximately 147° C. followed by an endotherm of melt at about 160° C. […]” for “mL/minute.”

| Compound | aqueous solubility [1] | bioavailability [2] | stability of the crystalline form [3] | solubility relative to Form A [4] | solid state phase transformation temperature (to Form A) [5] |
| --- | --- | --- | --- | --- | --- |
| O=C1CCc2cc(OCCCCc3nnnn3C3CCCCC3)ccc2N1 [Form A, 6-[4-(1-cyclohexyl-1H-tetrazol-5-yl)butoxy]-3,4-dihydro-2(1H)-quinolinone] | low | low |  |  |  |
| O=C1CCc2cc(OCCCCc3nnnn3C3CCCCC3)ccc2N1 [Form B, 6-[4-(1-cyclohexyl-1H-tetrazol-5-yl)butoxy]-3,4-dihydro-2(1H)-quinolinone] |  |  | stable | more soluble than Form A | approximately 119 °C |
| O=C1CCc2cc(OCCCCc3nnnn3C3CCCCC3)ccc2N1 [Form C, 6-[4-(1-cyclohexyl-1H-tetrazol-5-yl)butoxy]-3,4-dihydro-2(1H)-quinolinone] |  |  | stable | more soluble than Form A | approximately 147 °C |
